For one test, the target named is T1, Lck (Homo sapiens, UniProt P06239).
T1 construct: purchased Reaction Biology Corp
The test is described as follows: In vitro kinase assay (IC50). In kind it is biochemical. On the procedure: (§1) Full panel kinase profiling and kinase IC50 measurement were performed by using Reaction Biology Corp. (San Diego, USA).

For the next test, the target named is T2, c-Src (Homo sapiens, UniProt P12931).
T2 construct: purchased Reaction Biology Corp
Nature of the test: In vitro kinase assay (IC50). In kind it is biochemical. The procedure:
as §1

pIC50: −log10 of the molar value. Where a SMILES comes first, the peptide text is derived from it. [ ]: non-standard residue; d: D form. The star is where a group is joined. X1 = Cc1ccc(Nc2ncc3c(n2)N(C)C(=O)N(c2cc(C(=O)*)ccc2C)C3)cn1; Ac4c = NC1(C(=O)O)CCC1; Ac3c = NC1(C(=O)O)CC1; Aib = CC(C)(N)C(=O)O

T2 sequence (P12931 whole entry): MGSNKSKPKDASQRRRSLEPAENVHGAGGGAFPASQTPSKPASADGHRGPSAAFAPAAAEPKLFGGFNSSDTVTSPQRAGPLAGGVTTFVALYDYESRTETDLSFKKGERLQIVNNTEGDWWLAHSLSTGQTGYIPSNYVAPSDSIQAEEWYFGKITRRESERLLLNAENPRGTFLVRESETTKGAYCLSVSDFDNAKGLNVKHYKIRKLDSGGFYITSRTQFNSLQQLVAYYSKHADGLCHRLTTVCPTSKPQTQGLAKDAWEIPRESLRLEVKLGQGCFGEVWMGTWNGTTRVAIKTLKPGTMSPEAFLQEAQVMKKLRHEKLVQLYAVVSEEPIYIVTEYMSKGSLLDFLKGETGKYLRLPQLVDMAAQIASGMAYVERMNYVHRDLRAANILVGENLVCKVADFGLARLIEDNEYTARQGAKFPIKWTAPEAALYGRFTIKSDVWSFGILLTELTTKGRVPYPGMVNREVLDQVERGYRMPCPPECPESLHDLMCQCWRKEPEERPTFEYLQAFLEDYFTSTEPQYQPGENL
T1 sequence (P06239 whole entry): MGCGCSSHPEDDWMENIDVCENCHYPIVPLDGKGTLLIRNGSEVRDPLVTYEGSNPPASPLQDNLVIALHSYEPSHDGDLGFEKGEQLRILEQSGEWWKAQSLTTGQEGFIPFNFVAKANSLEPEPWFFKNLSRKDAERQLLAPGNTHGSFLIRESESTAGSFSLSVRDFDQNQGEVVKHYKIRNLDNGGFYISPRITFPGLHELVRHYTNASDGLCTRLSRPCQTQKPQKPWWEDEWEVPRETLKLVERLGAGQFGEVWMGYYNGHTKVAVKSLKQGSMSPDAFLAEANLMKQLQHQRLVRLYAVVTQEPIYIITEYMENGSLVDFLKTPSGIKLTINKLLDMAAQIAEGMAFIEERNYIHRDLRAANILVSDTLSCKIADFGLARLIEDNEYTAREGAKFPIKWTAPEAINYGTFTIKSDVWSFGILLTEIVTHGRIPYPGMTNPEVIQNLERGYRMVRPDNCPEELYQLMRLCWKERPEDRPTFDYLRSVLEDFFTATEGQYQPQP

In the case of `Cc1ccc(Nc2ncc3c(n2)N(C)C(=O)N(c2cc(C(=O)N[C@@H](C(=O)N4CCC[C@@H]4C(=O)NC(C)(C)C(=O)N[C@H](CC(C)C)C(=O)N(C)C)C(C)C)ccc2C)C3)cn1` [7c, (R)-N-(1-(((R)-1-(dimethylamino)-4-methyl-1-oxopentan-2-yl)amino)-2-methyl-1-oxopropan-2-yl)-1-((4-methyl-3-(1-methyl-7-((6-methylpyridin-3-yl)amino)-2-oxo-1,4-dihydropyrimido[4,5-d]pyrimidin-3(2H)-yl)benzoyl)-D-valyl)pyrrolidine-2-carboxamide] (X1-[dV][dP][Aib][dL]-NMe2), on Lck, the negative logarithm of the IC50 (pIC50) (as a rule, −log10 of the IC50, conventionally taken in molar units) is 6.68 and the “decrease of Lck/c-Src selectivity compared to 7a” value is greater than 10 fold. The compound further had a pIC50 on c-Src of 6.13.
As to `Cc1ccc(Nc2ncc3c(n2)N(C)C(=O)N(c2cc(C(=O)N[C@H](C(=O)N4CCC[C@H]4C(=O)NC4(C(=O)N[C@@H](CC(C)C)C(=O)N(C)C)CC4)C(C)C)ccc2C)C3)cn1` [7d, (S)-N-(1-(((S)-1-(dimethylamino)-4-methyl-1-oxopentan-2-yl)carbamoyl)cyclopropyl)-1-((4-methyl-3-(1-methyl-7-((6-methylpyridin-3-yl)amino)-2-oxo-1,4-dihydropyrimido[4,5-d]pyrimidin-3(2H)-yl)benzoyl)-L-valyl)pyrrolidine-2-carboxamide] (X1-VP[Ac3c]L-NMe2), the pIC50 at Lck was 7.31; against c-Src, 6.26.
Regarding `Cc1ccc(Nc2ncc3c(n2)N(C)C(=O)N(c2cc(C(=O)N[C@H](C(=O)N4CCC[C@@H]4C(=O)NC4(C(=O)N[C@@H](CC(C)C)C(=O)N(C)C)CC4)C(C)C)ccc2C)C3)cn1` [7e, (R)-N-(1-(((S)-1-(dimethylamino)-4-methyl-1-oxopentan-2-yl)carbamoyl)cyclopropyl)-1-((4-methyl-3-(1-methyl-7-((6-methylpyridin-3-yl)amino)-2-oxo-1,4-dihydropyrimido[4,5-d]pyrimidin-3(2H)-yl)benzoyl)-L-valyl)pyrrolidine-2-carboxamide] (X1-V[dP][Ac3c]L-NMe2), the pIC50 was 6.89 against Lck and 5.68 at c-Src.
Turning to `Cc1ccc(Nc2ncc3c(n2)N(C)C(=O)N(c2cc(C(=O)N[C@H](C(=O)N4CCC[C@H]4C(=O)NC4(C(=O)N[C@@H](CC(C)C)C(=O)N(C)C)CCC4)C(C)C)ccc2C)C3)cn1` [7f, (S)-N-(1-(((S)-1-(dimethylamino)-4-methyl-1-oxopentan-2-yl)carbamoyl)cyclobutyl)-1-((4-methyl-3-(1-methyl-7-((6-methylpyridin-3-yl)amino)-2-oxo-1,4-dihydropyrimido[4,5-d]pyrimidin-3(2H)-yl)benzoyl)-L-valyl)pyrrolidine-2-carboxamide] (X1-VP[Ac4c]L-NMe2), the figures for the pIC50 against Lck and against c-Src were 7.56 and 6.18, respectively.
In the same order, the values of `Cc1ccc(Nc2ncc3c(n2)N(C)C(=O)N(c2cc(C(=O)N[C@H](C(=O)N4CCC[C@H]4C(=O)NCC(=O)N[C@@H](CC(C)C)C(=O)N(C)C)C(C)C)ccc2C)C3)cn1` [7g, (S)-N-(2-(((S)-1-(dimethylamino)-4-methyl-1-oxopentan-2-yl)amino)-2-oxoethyl)-1-((4-methyl-3-(1-methyl-7-((6-methylpyridin-3-yl)amino)-2-oxo-1,4-dihydropyrimido[4,5-d]pyrimidin-3(2H)-yl)benzoyl)-L-valyl)pyrrolidine-2-carboxamide] (X1-VPGL-NMe2) are 7.40 and 5.86.
As for `Cc1ccc(Nc2ncc3c(n2)N(C)C(=O)N(c2cc(C(=O)N[C@H](C(=O)N4CCC[C@@H]4C(=O)NCC(=O)N[C@@H](CC(C)C)C(=O)N(C)C)C(C)C)ccc2C)C3)cn1` [7h, (R)-N-(2-(((S)-1-(dimethylamino)-4-methyl-1-oxopentan-2-yl)amino)-2-oxoethyl)-1-((4-methyl-3-(1-methyl-7-((6-methylpyridin-3-yl)amino)-2-oxo-1,4-dihydropyrimido[4,5-d]pyrimidin-3(2H)-yl)benzoyl)-L-valyl)pyrrolidine-2-carboxamide] (X1-V[dP]GL-NMe2), the pIC50 against Lck was 7.19; against c-Src, 5.76.

Values taken from article PMC9067983, “Identification of highly selective type II kinase inhibitors with chiral peptidomimetic tails” (Journal of Enzyme Inhibition and Medicinal Chemistry, 2022).
